# Data taken from patent US20230119013A1, “N-CYANOPYRROLIDINES WITH ACTIVITY AS USP30 INHIBITORS” (MISSION THERAPEUTICS LIMITED, priority 2020, published 2023).
# Where two headings read alike, the source gives them in different places.
# Legend:
# UCHL1 = target: T1, UCHL1 (Homo sapiens, UniProt P09936); experiment: DUB IC50 UCHL1; type: biochemical
# T1 sequence (P09936 1-223): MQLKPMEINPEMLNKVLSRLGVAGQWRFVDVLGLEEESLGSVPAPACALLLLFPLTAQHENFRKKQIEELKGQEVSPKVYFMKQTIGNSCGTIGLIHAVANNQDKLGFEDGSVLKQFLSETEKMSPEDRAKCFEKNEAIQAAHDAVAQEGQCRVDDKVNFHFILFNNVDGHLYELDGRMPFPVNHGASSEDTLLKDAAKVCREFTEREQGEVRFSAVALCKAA
# USP30 = target: T2, USP30 (Homo sapiens, UniProt Q70CQ3); experiment: USP30 biochemical IC50 assay (fluorescence polarisation)
# T2 construct: purchased Boston Biochem E582
# T2 sequence (Q70CQ3 57-517 limits assumed): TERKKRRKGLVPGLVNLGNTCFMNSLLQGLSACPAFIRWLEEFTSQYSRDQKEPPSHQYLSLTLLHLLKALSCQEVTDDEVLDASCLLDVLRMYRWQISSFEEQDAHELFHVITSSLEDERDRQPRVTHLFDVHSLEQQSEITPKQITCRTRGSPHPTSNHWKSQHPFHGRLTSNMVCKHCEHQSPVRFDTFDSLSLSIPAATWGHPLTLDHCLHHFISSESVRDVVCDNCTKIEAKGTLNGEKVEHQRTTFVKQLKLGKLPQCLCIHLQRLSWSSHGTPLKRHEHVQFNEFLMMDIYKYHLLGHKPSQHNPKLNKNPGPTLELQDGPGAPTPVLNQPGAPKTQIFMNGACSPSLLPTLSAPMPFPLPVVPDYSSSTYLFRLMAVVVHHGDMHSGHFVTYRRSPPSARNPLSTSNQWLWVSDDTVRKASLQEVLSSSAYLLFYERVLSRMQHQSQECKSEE
# Method: Dilution plates were prepared at 21 times the final concentration (2100 μM for a final concentration of 100 μM) in 50% DMSO in a 96-well polypropylene V-bottom plate (Greiner #651201). A typical 8-point dilution series would be 100, 30, 10, 3, 1, 0.3, 0.1, 0.03 μM final. Reactions were performed in duplicate in black 384 well plates (small volume, Greiner 784076) in a final reaction volume of 21 μl. Either 1 μl of 50% DMSO or diluted compound was added to the plate. USP30 (Boston Biochem #E582) was diluted in reaction buffer (40 mM Tris, pH 7.5, 0.005% Tween 20, 0.5 mg/ml BSA, 5 mM beta-mercaptoethanol) to achieve a final assay concentration of 4 nM, and 10 μl of diluted USP30 was added to the compound. Enzyme and compound were incubated for 30 min at room temp. Reactions were initiated by the addition of 50 nM of TAMRA labelled peptide linked to ubiquitin via an iso-peptide bond as fluorescence polarisation substrate. Reactions were read immediately after addition of substrate and following a 2-hour incubation at room temperature. Readings were performed on a Pherastar Plus (BMG Labtech). λ Excitation 540 nm; Emission 590 nm.
# [1] = tested on: USP2, USP10, USP16, USP21, USP22, USP25, USP28; experiment: DUB IC50, seven DUBs; type: biochemical; conditions: for DUB selectivity preference for USP30 v 7 DUBs: range over the seven DUBs
# [2] = tested on: T3, USP2, USP10, USP16, USP21, USP22, USP25, USP28; experiment: DUB IC50, seven DUBs; type: biochemical; conditions: range over the seven DUBs
# T3 construct: DUB IC50 (μM) USP2, USP10, USP16, USP21, USP22, USP25, USP28; other: range over the seven DUBs
# [3] = tested on: T4, cathepsins B, K, L, S and V; experiment: Cathepsin IC50, summary over B, K, L, S, V; type: biochemical; conditions: range over the five cathepsins
# T4 construct: Cathepsin IC50 (μM) B, K, L, S, V; other: range over the five cathepsins
# [4] = tested on: cathepsins B, K, L, S and V; experiment: Cathepsin IC50, summary over B, K, L, S, V; type: biochemical; conditions: K, L
# hepatocyte = experiment: Hepatocyte clearance mouse; type: in vitro ADME; conditions: mouse hepatocytes
# Excerpt: (§1) log P: partition coefficient; lipophilicity measurement. log D: distribution co-efficient; lipophilicity measurement. TPSA: topological polar surface area. Turbidimetric solubility: Test compound solution prepared in DMSO diluted into aqueous buffer. Turbidimetry is used as the end-point by measuring absorbance at 620 nm. FaSSIF: simulated intestinal fluid in fasted state measured at pH 6.5. Hep Cl mouse: in vitro hepatocyte clearance in mouse cells. Hep Cl human: in vitro hepatocyte clearance in human cells. Plasma fu,p: The free fraction of a compound in plasma preparation determined by in vitro equilibrium dialysis. It is understood that only unbound (free) compound is capable of engaging with the target. Brain fu,br: The free fraction of a compound in brain homogenate preparation determined by in vitro equilibrium dialysis. It is understood that only unbound (free) compound is capable of engaging with the target. Clu: in vitro clearance. Clu as defined here is the scaled clearance, in turn calculated from the intrinsic clearance. The intrinsic clearance is the predicted clearance due to hepatic metabolic reactions, determined from incubation of a compound in a hepatocyte preparation. […] Cl in vivo clearance: Pharmacokinetic measurement of the volume of plasma (or any matrix) from which a substance is completely removed per unit time.
# [5] = Plasma free fraction by equilibrium dialysis; type: in vitro ADME; conditions: mouse plasma; read-out: Binding Mouse Plasma fu, p
# Excerpt: as §1
# TOM20 ubiquitylation = experiment: TOM20-ubiquitylation assay; type: cell-based, human; conditions: antimycin A/oligomycin mitophagy trigger
# Excerpt: Human cell lines can be challenged with mitochondrial depolarizing agents (ionophores (eg. CCCP, valinomycin), mitochondrial complex inhibitors (oligomycin, antimycin A)) to induce ubiquitylation of TOM20, which is then further promoted in the presence of USP30 inhibitors. TOM20 ubiquitylation is subsequently assessed through western blotting of the cell lysates, with TOM20 ubiquitylation adduct detection possible due to an 8 kDa molecule weight increase for each molecule of ubiquitin added, resulting in laddering of a TOM20 immunoreactive band. TOM20-ubiquitylation levels can be quantified using chemiluminescence densitometry of laddered immunoreactive bands.
# [6] = tested on: HCT116 human colorectal carcinoma cells; experiment: In vitro cytotoxicity (Cell Tox), alamarBlue; type: cell-based; conditions: HCT-116, 96-hour continual compound exposure
# Method: In Vitro Cytotoxicity (Cell Tox): Measured in HCT116 human colorectal carcinoma cells using alamarBlue™ as the assay endpoint. Compound cytotoxicity was measured over a period of 96-hour continual compound exposure.
# Mouse plasma stability = type: in vitro ADME; conditions: read-out: Stability Mouse plasma t1/2
smiles,measurement,setting,value
"N#Cc1ccc(-c2cnc(NC(=O)[C@H]3CCN(C#N)C3)s2)cc1OC(F)(F)F [B, reference compound]",DUB selectivity preference for USP30 v UCHL1,UCHL1,4.5
same,IC50,UCHL1,0.77 µM
same,fold more potent against USP30 than UCHL1,UCHL1,4.5 fold
same,IC50,USP30; read-out: DUB IC50 (μM) USP30,0.172 µM
same,IC50,USP30; read-out: USP30 IC50,0.172 µM
"CC1CC(C(=O)Nc2ncc(-c3ccccc3)s2)CN1C#N (stereo not drawn) [D, reference compound]",fold more potent against USP30 than UCHL1,UCHL1,1.5 fold
"N#CN1CC[C@H](C(=O)Nc2ncc(-c3ccccc3)s2)C1 [C, reference compound]",fold more potent against USP30 than UCHL1,UCHL1,0.8 fold
"COc1cccc(-c2cc(C(=O)N[C@@H]3CCN(C#N)C3)on2)c1 [Reference Example A, reference compound]","fold more potent against USP30 than against each of the seven DUBs, at a minimum","[1]; USP2, USP10, USP16, USP21, USP22, USP25 and USP28",2.7 fold
same,DUB selectivity preference for USP30 v 7 DUBs,[1],2.7-141
same,IC50,[2],0.19 to 9.9 µM
same,IC50,[3],0.79 to 8.8 µM
same,"fold more potent against USP30 than against each of the cathepsins, at a minimum","[4]; cathepsins B, S and V",11 fold
same,Selectivity preference for USP30 v cathepsins,"[4]; range over cathepsins B, S, V",11-126
"COC[C@H]1C[C@@H](NC(=O)c2ncc(-c3cccc(OC(F)(F)F)c3)o2)CN1C#N [Example 3, N-((3R,5R)-1-Cyano-5-(methoxymethyl)pyrrolidin-3-yl)-5-(3-(trifluoromethoxy)phenyl)oxazole-2-carboxamide]",Hepatocyte Cl mouse scaled Clu,hepatocyte,97.4 mL/min/kg
same,DUB selectivity preference for USP30 v UCHL1,UCHL1,37500
same,IC50,UCHL1,> 300 µM
same,DUB selectivity preference for USP30 v 7 DUBs,[1],>37500
same,IC50,[2],> 300 µM
same,fraction unbound,[5],0.036
same,TOM20-Ub 1.5-fold gain EC1.5x (μM),TOM20 ubiquitylation,0.210 (n = 1) μM
same,EC50,[6],23900 nM
same,fold more potent against USP30 than Reference Example A,USP30; biochemical assay,9 fold
same,fold more potent against USP30 than Reference Example B,USP30; biochemical assay,22 fold
same,fold more potent against USP30 than Reference Example C,USP30; biochemical assay,39 fold
same,fold more potent against USP30 than Reference Example D,USP30; biochemical assay,550 fold
same,IC50,USP30; read-out: USP30 IC50,0.008 µM
same,half-life,Mouse plasma stability,> 2 h
